According to US20220213126A1, “SMALL MOLECULE AUTOPHAGY INDUCERS FOR THE TREATMENT OF CANCER AND NEURODEGENERATIVE DISEASES” (John Wayne Cancer Institute, priority 2019, published 2022):

Test system: MDA-MB-231 TNBC cells
Test: Growth of MDA-MB-231 TNBC cells
Assay type: cell-based
Settings: 1%, 5% or 10% serum
Protocol: FIGS. 2A and 2B are graphs showing the effect of VMY-BC-1 on TNBC cells. […] The percentage of cells crossing the chamber is presented as the mean±SEM. *P<0.05.
Effect of VMY-BC-1 on Triple Negative Breast Cancer Cell Lines A trans-stilbene boronic acid analog, VMY-BC-1, was tested against a TNBC cell line.

SMILES: COc1ccc(/C=C/c2cc(OC)cc(B(O)O)c2)cc1 [VMY-BC-1]
- Growth of MDA-MB-231 TNBC cells: significantly inhibited growth
